Legend:
ASK1 kinase = ASK1 kinase (Homo sapiens (Human), UniProt Q99683); experiment: ASK1 enzymatic test (TR-FRET); format: biochemical; settings: ASK1 kinase activity
Outline: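 ASK1 at 0.220 nM final was incubated with serially diluted compound, substrate peptide (100–5000 nM final) and ATP (100–1000 μM final) for 0.5–5 h at room temperature. The reaction was stopped with EDTA and labelled antibody, then read by TR-FRET at 615/665 nm after 2–24 h. IC50 was obtained by curve fitting of inhibition rates.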

[1] = Pharmacokinetic (PK) assay in mice; format: in vivo; settings: Balb/c male mice, single intragastric administration, 5 mg/kg, plasma; for AUC(0-t) / AUC(0-inf) / half-life / MRT / Cmax: mouse, po; for AUC(0-t): read-out: Area under curve AUC0-t; for AUC(0-inf): read-out: Area under curve AUC0-∞; for half-life: read-out: Half-life t1/2 (converted); for MRT: read-out: Mean residence time MRT; for Cmax: read-out: Plasma concentration Cmax
Outline: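 Male Balb/c mice given a single intragastric dose of 5 mg/kg (10 ml/kg) in 0.5% CMC-Na. Orbital blood at 0.5–24 h into K2EDTA; plasma acetonitrile-precipitated and measured by LC-MS/MS (C18, formic acid/acetonitrile gradient). PK parameters by WinNonlin.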

[2] = system: non-alcoholic steatohepatitis mice induced by HFD (high fat diet)+CCl4; experiment: Effect on serum ALT and AST levels of non-alcoholic steatohepatitis mice induced by HFD+CCl4; format: in vivo, C57BL/6 mice; set-up: concentration or dose not given beside the values; settings: oral once a day for 28 days, versus solvent control group
Source text: 3. The effect of the compounds of the present invention on the ALT and AST levels of non-alcoholic steatohepatitis mice induced by HFD (high fat diet)+CCl4
The object of this test example is to determine whether the compounds of the present invention can down-regulate the ALT and AST levels in the serum of non-alcoholic steatohepatitis mice or not.
C57BL/6 mice were adaptively fed in a SPF (specific pathogen free) barrier for 3 to 7 days, and then fed with HFD feed with a feeding cycle of 8 weeks. At the fifth week of HFD feeding, the HFD-induced mice were randomly grouped according to body weight, and orally administrated with CCl4 twice a week for 4 weeks. At the day of modeling with CCl4, the test compounds were orally administrated once a day continuously for 28 days. The solvent control group was administrated with the corresponding solvent of the test compounds with an administration volume of 10 mL/kg. The mice were euthanized with CO2 48 hours after the last administration of CCl4, and the non-anticoagulated venous blood was collected from the heart. The whole blood was left to stand at room temperature for at least 30 minutes, and then centrifuged for 5 minutes at 4° C. at 5000 rpm to separate the serum. The serum was dispensed into two portions in 1.5 mL EP tubes, and stored at −80° C. for later use.
The ALT and AST levels in mice serum were determined using the alanine aminotransfease (ALT/GPT) kit and aspartate aminotransferase (AST/GOT) kit. The ALT (or AST) test substrate solution was preheated in a 37° C. incubator; 20 μL of substrate solution were pipetted into a 96-well plate, and 5 μL of serum were pipetted into the 96-well plate as test well. After mixing well, the plate was sealed using a sealing film, and placed into the 37° C. incubator to incubate for 30 min. The ALT (or AST) standard curve was formulated, and 25 μL of which were pipetted into the 96-well plate; 20 μL of […] were pipetted into the 96-well plate as control well; 20 μL of 2,4-dinitrophenylhydrazine solution were added to each well. After mixing well, the plate was sealed using a sealing film, and placed into the 37° C. incubator to incubate for 20 min. 200 μL of 0.4 M NaOH solution were added to each well. The plate was placed on a shaker to shake for 15 min, and then measured on the BioTek Synergy H1 instrument using OD detection program at a wavelength of 510 nm. The absolute OD value was calculated from the OD value of each well. Absolute OD value=OD value of measured well−OD value of control well. The absolute OD value was taken into the standard curve to obtain the ALT (or AST) content of the sample. Samples that exceed the standard curve range should be re-tested after diluting the serum to an appropriate concentration. Data processing: (% ALT reduction rate)=(solvent control group−test compound)/solvent control group×100%; (% AST reduction rate)=(solvent control group−test compound)/solvent control group×100%.

Chain of ASK1 kinase (Q99683 whole entry): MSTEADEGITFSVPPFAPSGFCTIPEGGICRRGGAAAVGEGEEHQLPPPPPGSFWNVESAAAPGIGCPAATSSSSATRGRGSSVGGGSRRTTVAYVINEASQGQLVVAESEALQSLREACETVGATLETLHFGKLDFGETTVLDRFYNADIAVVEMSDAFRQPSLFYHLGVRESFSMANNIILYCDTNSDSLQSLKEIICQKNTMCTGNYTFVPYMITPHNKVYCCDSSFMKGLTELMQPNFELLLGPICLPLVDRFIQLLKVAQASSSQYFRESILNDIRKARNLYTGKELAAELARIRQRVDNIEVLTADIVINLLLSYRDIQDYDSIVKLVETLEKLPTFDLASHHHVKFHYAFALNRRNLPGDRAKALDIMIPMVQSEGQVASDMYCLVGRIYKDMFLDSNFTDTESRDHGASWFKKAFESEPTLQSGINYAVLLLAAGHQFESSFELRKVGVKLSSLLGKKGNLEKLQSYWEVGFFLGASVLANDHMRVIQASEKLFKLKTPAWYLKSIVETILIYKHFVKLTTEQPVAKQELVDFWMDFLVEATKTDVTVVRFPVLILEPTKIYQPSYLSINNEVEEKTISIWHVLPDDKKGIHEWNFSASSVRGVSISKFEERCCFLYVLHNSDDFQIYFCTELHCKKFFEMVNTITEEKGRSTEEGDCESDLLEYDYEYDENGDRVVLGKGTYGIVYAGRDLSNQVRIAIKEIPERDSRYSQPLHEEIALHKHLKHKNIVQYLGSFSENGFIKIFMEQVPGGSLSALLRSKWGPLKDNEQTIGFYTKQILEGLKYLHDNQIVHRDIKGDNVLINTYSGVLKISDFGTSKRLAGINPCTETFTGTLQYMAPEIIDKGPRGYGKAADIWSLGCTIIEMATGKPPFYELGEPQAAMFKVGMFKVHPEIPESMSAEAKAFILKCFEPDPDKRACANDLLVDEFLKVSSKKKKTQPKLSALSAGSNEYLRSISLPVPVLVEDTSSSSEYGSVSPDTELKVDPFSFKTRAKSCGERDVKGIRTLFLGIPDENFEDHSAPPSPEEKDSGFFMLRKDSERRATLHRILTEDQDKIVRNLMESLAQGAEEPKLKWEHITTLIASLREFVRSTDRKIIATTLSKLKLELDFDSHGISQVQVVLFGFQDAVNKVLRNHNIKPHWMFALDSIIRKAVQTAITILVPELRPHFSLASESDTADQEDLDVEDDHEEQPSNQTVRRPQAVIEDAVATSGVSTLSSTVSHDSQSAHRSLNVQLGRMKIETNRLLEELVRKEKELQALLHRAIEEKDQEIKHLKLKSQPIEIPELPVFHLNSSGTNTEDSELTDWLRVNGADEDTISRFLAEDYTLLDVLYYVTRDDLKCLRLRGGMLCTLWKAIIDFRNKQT

IC50 (ASK1 kinase) [nM]	Peak time tmax [1] [h]	AUC(0-t) [1] [ng·h/mL]	AUC(0-inf) [1] [ng·h/mL]	half-life [1] [h]	MRT [1] [h]	Cmax [1] [ng/mL]	SMILES	ALT(U/L) reduction rate (%) [2] [%]	AST(U/L) reduction rate (%) [2] [%]
1.9	0.5	31500	31500	1.4	2.9	9330	CC[C@@H]1CCc2nnc(-c3cccc(NC(=O)c4cc(-n5cnc(C6CC6)c5)c(C)cc4F)n3)n21 [Example 55, (R)-5-(4-Cyclopropyl-1H-imidazol-1-yl)-N-(6-(5-ethyl-6,7-dihydro-5H-pyrrolo[2,1-c][1,2,4]triazol-3-yl)pyridin-2-yl)-2-fluoro-4-methylbenzamide]	56	55
1.9	1	68600	68800	2.7	4.5	11400	Cc1cc(F)c(C(=O)Nc2cccc(-c3nnc4n3C3(CC4)CC3)n2)cc1-n1cnc(C2CC2)c1 [Example 61, 5-(4-Cyclopropyl-1H-imidazol-1-yl)-N-(6-(6′,7′-dihydrospiro[cyclopropane-1,5′-pyrrolo[2,1-c][1,2,4]triazol]-3′-yl)pyridin-2-yl)-2-fluoro-4-methylbenzamide]	50	54
